A short description of data set [1]: Intrinsic clearance in human liver microsomes at 1 umol/L after 20 mins in presence of NADPH. The format is ADME, Microsome. The settings on record: read-out: CLH. A general note: Liver microsomes are a subcellular fraction often used to study metabolism.
The target in data set [2] is T1, Serine/threonine-protein kinase B-raf (Homo sapiens, UniProt P15056, V600E). The experiment in a line: Inhibition of BRAF V600E mutant in human HT-29 cells assessed as reduction of […] phosphorylation. Type of data set: cell-based.
T1 sequence (P15056 2-766 V600E limits assumed): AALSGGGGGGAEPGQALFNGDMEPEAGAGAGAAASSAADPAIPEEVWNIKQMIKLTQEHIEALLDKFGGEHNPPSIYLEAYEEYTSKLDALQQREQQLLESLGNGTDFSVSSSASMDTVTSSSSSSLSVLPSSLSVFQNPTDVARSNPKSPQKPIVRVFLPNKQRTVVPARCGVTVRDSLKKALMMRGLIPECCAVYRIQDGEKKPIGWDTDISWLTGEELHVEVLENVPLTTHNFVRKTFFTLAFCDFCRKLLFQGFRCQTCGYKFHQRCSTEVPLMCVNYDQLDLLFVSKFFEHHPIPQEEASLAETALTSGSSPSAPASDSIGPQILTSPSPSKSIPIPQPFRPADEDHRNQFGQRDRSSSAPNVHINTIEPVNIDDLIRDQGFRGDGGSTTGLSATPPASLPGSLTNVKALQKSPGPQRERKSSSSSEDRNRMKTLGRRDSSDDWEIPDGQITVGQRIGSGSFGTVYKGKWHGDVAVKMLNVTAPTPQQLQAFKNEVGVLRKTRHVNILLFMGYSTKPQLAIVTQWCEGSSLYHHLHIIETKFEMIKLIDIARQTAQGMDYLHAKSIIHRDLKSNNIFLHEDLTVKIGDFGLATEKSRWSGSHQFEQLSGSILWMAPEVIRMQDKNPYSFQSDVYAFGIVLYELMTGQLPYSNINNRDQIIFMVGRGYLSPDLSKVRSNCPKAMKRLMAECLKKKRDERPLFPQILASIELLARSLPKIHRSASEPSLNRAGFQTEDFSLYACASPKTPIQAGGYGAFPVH
Data set [3] can be described thus: Intrinsic clearance in mouse liver microsomes at 1 umol/L after 20 mins in presence of NADPH. Type of data set: ADME, Microsome. The settings on record: read-out: CLH.
Data set [4] has as its target T1, Serine/threonine-protein kinase B-raf. Briefly: Inhibition of recombinant BRAF V600E mutant using […] and [gamma-32P]ATP as substrate after 30 mins by scintillation counting.
Data set [5] deals with Vascular endothelial growth factor receptor 2 (Homo sapiens, UniProt P35968). The experiment in a line: Inhibition of VEGFR2.
Sequence of Vascular endothelial growth factor receptor 2 (P35968 whole entry): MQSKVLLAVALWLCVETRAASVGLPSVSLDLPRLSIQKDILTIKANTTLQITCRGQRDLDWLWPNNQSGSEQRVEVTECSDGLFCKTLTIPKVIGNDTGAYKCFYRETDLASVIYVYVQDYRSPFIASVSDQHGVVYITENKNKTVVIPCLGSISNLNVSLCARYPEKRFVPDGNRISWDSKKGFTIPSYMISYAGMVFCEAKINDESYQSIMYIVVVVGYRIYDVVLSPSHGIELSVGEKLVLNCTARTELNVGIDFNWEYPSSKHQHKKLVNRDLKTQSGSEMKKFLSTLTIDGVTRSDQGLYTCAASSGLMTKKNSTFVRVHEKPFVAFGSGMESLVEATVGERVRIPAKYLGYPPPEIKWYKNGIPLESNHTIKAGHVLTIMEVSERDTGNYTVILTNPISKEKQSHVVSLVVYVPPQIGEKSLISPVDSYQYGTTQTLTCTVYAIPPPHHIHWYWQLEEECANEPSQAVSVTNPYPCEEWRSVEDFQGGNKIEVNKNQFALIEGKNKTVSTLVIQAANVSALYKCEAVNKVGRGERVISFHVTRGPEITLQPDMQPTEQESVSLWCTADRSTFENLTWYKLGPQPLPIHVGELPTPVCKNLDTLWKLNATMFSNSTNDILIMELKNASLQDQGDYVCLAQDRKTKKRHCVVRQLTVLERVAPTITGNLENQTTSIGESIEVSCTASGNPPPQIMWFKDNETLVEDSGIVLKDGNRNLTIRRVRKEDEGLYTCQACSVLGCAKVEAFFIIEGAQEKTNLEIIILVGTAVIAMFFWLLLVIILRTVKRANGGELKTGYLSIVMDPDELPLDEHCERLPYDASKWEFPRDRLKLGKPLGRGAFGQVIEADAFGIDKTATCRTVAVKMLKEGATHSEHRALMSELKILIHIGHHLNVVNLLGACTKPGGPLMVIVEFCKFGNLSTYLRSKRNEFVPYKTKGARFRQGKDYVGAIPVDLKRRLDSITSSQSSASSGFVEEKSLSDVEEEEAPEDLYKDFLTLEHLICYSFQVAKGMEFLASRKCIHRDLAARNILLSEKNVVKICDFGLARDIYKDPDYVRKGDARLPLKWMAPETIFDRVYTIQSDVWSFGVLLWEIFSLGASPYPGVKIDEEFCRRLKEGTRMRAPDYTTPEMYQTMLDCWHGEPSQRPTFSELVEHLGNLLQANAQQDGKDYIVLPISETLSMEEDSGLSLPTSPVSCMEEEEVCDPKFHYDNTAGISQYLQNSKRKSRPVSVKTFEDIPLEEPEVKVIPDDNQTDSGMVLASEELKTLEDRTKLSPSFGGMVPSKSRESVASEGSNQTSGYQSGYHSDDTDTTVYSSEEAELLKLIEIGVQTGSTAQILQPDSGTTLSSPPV
Data set [6] is described as follows: Thermodynamic solubility of the compound in Japanese pharmacopoeia 2nd fluid at pH 6.8 presence of 20 mmol/L of bile acid. The note with it: read-out: Therm_solubility. Type of data set: physicochemical.
Data set [7] deals with Dual specificity mitogen-activated protein kinase kinase 1 (Homo sapiens, UniProt Q02750).
For data set [8], the target named is Platelet-derived growth factor receptor alpha (Homo sapiens, UniProt P16234). Briefly: Inhibition of PDGFRalpha.
The target in data set [9] is Receptor tyrosine-protein kinase erbB-2 (Homo sapiens, UniProt P04626). The experiment in a line: Inhibition of HER2.
Data set [10] deals with Cyclin-dependent kinase 2 (Homo sapiens, UniProt P24941). The experiment in a line: Inhibition of CDK2.
Data set [11] deals with Proto-oncogene tyrosine-protein kinase Src (Homo sapiens, UniProt P12931).
The target of data set [12] is Hepatocyte growth factor receptor (Homo sapiens, UniProt P08581).
Data set [13] concerns the target Fibroblast growth factor receptor 3 (Homo sapiens, UniProt P22607). Briefly: Inhibition of FGFR3.
Data set [14] addresses Mitogen-activated protein kinase 3 (Homo sapiens, UniProt P27361). Briefly: Inhibition of ERK1.
Data set [15] deals with Protein kinase C theta type (Homo sapiens, UniProt Q04759). The experiment in a line: Inhibition of PKCtheta.
Sequence of Protein kinase C theta type (Q04759 whole entry): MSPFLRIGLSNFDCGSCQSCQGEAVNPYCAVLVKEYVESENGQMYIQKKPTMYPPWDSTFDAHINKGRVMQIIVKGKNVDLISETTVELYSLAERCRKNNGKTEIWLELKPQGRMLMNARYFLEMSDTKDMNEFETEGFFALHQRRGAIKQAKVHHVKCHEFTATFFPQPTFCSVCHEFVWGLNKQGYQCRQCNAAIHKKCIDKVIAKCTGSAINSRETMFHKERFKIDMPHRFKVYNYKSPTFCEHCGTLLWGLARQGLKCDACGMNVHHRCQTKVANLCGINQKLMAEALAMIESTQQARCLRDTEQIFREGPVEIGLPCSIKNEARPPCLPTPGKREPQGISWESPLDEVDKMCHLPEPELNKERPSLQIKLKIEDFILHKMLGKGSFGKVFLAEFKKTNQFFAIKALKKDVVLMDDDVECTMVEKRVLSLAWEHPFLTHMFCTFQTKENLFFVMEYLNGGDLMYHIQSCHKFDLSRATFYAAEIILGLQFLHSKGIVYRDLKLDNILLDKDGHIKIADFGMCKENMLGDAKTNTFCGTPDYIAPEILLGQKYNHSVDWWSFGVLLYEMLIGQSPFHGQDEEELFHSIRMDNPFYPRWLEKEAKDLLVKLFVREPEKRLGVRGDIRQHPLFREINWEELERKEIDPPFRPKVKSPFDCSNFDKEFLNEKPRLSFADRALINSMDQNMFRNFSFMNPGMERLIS
The next data set addresses Angiopoietin-1 receptor (Homo sapiens, UniProt Q02763). The experiment in a line: Inhibition of TIE2.
Data set [16] deals with RAF proto-oncogene serine/threonine-protein kinase (Homo sapiens, UniProt P04049). The experiment in a line: Inhibition of c-RAF.
For data set [17], the target named is Platelet-derived growth factor receptor beta (Homo sapiens, UniProt P09619). Briefly: Inhibition of PDGFRbeta.
Sequence of Platelet-derived growth factor receptor beta (P09619 whole entry): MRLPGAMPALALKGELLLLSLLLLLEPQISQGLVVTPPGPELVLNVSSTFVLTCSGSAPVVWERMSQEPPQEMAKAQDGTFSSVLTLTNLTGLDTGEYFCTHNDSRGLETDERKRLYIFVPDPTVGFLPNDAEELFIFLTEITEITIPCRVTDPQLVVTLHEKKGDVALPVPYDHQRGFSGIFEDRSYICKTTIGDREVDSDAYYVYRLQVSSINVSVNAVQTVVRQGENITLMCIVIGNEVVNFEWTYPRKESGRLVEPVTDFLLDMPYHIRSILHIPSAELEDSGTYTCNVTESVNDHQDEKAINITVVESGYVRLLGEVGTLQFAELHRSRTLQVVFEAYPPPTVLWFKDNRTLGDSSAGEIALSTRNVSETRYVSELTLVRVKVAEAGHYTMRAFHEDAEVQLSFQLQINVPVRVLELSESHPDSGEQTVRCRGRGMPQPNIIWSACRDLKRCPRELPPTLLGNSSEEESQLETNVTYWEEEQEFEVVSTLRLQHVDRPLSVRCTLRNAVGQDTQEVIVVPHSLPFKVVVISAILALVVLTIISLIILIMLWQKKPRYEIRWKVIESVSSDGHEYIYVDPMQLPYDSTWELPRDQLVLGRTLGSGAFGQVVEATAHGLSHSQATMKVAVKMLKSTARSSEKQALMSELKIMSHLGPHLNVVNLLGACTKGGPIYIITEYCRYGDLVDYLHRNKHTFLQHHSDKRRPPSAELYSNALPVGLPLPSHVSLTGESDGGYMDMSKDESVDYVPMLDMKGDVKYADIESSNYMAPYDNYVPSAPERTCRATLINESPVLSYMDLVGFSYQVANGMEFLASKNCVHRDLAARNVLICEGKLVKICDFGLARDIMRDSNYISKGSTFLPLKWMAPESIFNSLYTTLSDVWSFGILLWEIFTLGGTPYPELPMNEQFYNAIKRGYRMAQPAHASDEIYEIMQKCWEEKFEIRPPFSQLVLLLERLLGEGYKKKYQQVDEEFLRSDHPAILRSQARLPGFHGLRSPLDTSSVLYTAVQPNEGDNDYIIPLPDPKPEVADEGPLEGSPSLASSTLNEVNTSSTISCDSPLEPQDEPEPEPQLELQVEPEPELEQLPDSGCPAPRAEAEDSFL
Another data set concerns the target Aurora kinase B (Homo sapiens, UniProt Q96GD4). Briefly: Inhibition of aurora B.
The target in data set [18] is Mitogen-activated protein kinase kinase kinase 1 (Homo sapiens, UniProt Q13233). The experiment in a line: Inhibition of MEKK1.
Data set [19] concerns the target Cyclin-dependent kinase 1 (Homo sapiens, UniProt P06493). The experiment in a line: Inhibition of CDK1.
Data set [20] addresses Mast/stem cell growth factor receptor Kit (Homo sapiens, UniProt P10721). Briefly: Inhibition of c-Kit.
In data set [21] the target is Serine/threonine-protein kinase Chk1 (Homo sapiens, UniProt O14757). Briefly: Inhibition of CHK1.
Sequence of Serine/threonine-protein kinase Chk1 (O14757 whole entry): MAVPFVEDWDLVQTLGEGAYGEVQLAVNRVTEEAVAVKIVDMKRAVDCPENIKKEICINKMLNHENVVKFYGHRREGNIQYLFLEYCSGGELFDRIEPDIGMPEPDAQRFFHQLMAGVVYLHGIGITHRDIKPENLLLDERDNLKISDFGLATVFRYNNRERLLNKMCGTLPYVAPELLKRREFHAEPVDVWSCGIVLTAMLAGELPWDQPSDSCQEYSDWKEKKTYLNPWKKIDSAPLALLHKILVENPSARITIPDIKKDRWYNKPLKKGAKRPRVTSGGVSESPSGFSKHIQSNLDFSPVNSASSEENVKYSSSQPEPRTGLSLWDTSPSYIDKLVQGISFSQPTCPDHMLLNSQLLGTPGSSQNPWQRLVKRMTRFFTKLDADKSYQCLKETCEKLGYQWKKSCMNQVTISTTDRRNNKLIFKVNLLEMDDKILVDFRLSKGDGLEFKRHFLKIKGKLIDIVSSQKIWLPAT
The target of data set [22] is Glycogen synthase kinase-3 beta (Homo sapiens, UniProt P49841). The experiment in a line: Inhibition of GSK3beta.
The next data set addresses Insulin receptor (Homo sapiens, UniProt P06213). The experiment in a line: Inhibition of IR.
Data set [23] deals with Inhibitor of nuclear factor kappa-B kinase subunit beta (Homo sapiens, UniProt O14920). The experiment in a line: Inhibition of IKKbeta.
Data set [24] has as its target Mitogen-activated protein kinase 8 (Homo sapiens, UniProt P45983). The experiment in a line: Inhibition of JNK1.
Data set [25] can be described thus: Total clearance in rat at 1 mg/kg, iv. Type of data set: ADME, organism-based. Further details: dose 1 mg/kg, route intravenous. The note with it: in vivo.
Data set [26] can be described thus: AUC (0 to 24 hrs) in rat at 25 mg/kg, po. The format is ADME, organism-based. More on the design: time < 24 hr, dose 25 mg/kg, route oral. The settings on record: plasma.
In another data set the test system is HT-29. Briefly: Antitumor activity against human HT-29 cells xenografted in nude rat assessed as tumor regression at 25 mg/kg, po qd for 2 weeks. The format is functional.
Data set [27] is described as follows: Volume of distribution at steady state in rat at 1 mg/kg, iv. The format is ADME, organism-based. Further details: dose 1 mg/kg, route intravenous. The settings on record: in vivo, read-out: Vdss.
Data set [28] can be described thus: AUC (0 to 24 hrs) in rat at 1 mg/kg, iv. Further details: time < 24 hr, dose 1 mg/kg, route intravenous. The note with it: plasma. Type of data set: ADME, organism-based.
A short description of data set [29]: Mean residence time in rat at 1 mg/kg, iv. Type of data set: ADME, organism-based. Further details: dose 1 mg/kg, route intravenous. The note with it: in vivo.
Data set [30] in a line: Mean residence time in rat at 25 mg/kg, po. Type of data set: ADME, organism-based. Further details: dose 25 mg/kg, route oral. The settings on record: in vivo.
A short description of data set [31]: Oral bioavailability in rat at 25 mg/kg. The format is ADME, organism-based. The settings on record: in vivo.
The nature of data set [32]: Cmax in rat at 25 mg/kg, po. Type of data set: ADME, organism-based. More on the design: dose 25 mg/kg, route oral. The note with it: in vivo.
Data set [33] concerns Rattus norvegicus. The experiment in a line: Toxicity in human HT-29 cells xenografted nude rat at 25 mg/kg, po qd for 2 weeks. The format is organism-based. More on the design: dose 25 mg/kg, route oral. The note with it: in vivo, 336 h. For orientation: Xenograft models place foreign cells or tissue in a host animal.
The test system of data set [34] is Rattus norvegicus. Briefly: Inhibition of BRAF in human HT-29 cells xenografted nude rat tumor assessed as reduction of ERK phosphorylation at 25 mg/kg, po. The format is functional, organism-based. Further details: dose 25 mg/kg.

Molecules are shown by their SMILES. Calls of active or inactive are those of the source. No cut-off for these calls is given here. Where only a bound is given, the exact number is not on record here.

Sequence of Cyclin-dependent kinase 1 (P06493 whole entry): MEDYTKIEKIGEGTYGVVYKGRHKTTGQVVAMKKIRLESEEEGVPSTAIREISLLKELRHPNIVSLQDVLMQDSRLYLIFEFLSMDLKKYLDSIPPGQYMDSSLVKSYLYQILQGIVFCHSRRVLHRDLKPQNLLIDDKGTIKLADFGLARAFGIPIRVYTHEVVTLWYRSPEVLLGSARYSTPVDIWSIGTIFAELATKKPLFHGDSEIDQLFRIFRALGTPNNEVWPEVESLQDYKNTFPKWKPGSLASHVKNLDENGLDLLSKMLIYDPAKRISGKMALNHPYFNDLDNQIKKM
Sequence of Aurora kinase B (Q96GD4 whole entry): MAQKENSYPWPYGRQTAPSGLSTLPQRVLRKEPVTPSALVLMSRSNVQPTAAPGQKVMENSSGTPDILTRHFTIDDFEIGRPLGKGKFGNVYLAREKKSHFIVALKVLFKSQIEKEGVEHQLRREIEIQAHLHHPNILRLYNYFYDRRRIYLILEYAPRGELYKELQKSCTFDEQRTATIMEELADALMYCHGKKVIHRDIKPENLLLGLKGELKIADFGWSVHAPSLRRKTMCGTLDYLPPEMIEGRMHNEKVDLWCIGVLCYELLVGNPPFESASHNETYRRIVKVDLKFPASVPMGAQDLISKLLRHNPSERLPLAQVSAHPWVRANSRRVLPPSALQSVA

In general, IC50 refers to the concentration that inhibits the measured activity by half. As to `CC(=O)Nc1nc2ccc(N(C)c3ccc(F)c(NC(=O)c4cccc(OC(C)(C)C#N)c4Cl)c3)nc2s1`, the figures for the microsomal CLint at 1 µM in data set [1] and in [3] were 45 µL/min/mg and 55 µL/min/mg, respectively. Besides, the IC50 in [2] came to 0.022 µM.

As to `CC(=O)Nc1nc2cnc(Nc3cc(NC(=O)c4cccc(CCC#N)c4)ccc3C)nc2s1`, the results for the IC50 in data set [4], in data set [2] and in data set [5] were 0.051 µM, > 0.5 µM and 0.41 µM, respectively. Besides, the microsomal CLint at 1 µM in data set [1] was determined as 35 µL/min/mg.

Take `CN(c1ccc(F)c(NC(=O)c2cccc(OC(C)(C)C#N)c2Cl)c1)c1ccc2nc(NC(=O)C3CC3)sc2n1.O=S(=O)(O)O`: the solubility thermodynamic in data set [6] was 35 µg/mL.

With `CC(=O)Nc1nc2ccc(N(C)c3ccc(F)c(NC(=O)c4cccc(OC(C)(C)C#N)c4)c3)nc2s1`, the microsomal CLint at 1 µM in [1] came to 22 µL/min/mg; in [3], 25 µL/min/mg. In addition, in [2], the IC50 was found to be 0.03 µM.

In the case of `CC(C)(C#N)Oc1cccc(C(=O)Nc2cc(Nc3ccc4nc(NC(=O)C5CC5)sc4n3)ccc2F)c1Cl`, the IC50 is 0.015 µM in [4], 0.087 µM in [2] and 0.064 µM in [5]. Moreover, the solubility thermodynamic in [6] turned out to be 0.91 µg/mL.

For the molecule `CC(=O)Nc1nc2cnc(Nc3cc(NC(=O)c4cccc(C5(C#N)CC5)c4Cl)ccc3C)nc2s1`, the IC50 in data set [4] was determined as 0.091 µM; in [2] it was 0.12 µM; in [5] it was 0.34 µM. The microsomal CLint at 1 µM in data set [1] was determined as 73 µL/min/mg.

With `CC(=O)Nc1nc2cnc(Nc3cc(NC(=O)c4cccc(OC(C)(C)C#N)c4)ccc3C)nc2s1`, the IC50 in [4] is 0.073 µM; in [2], 0.088 µM; in data set [5], 0.51 µM.

With `CN(c1ccc(F)c(NC(=O)c2cccc(OC(C)(C)C#N)c2Cl)c1)c1ccc2nc(NC(=O)C3CC3)sc2n1.Cl`, the solubility thermodynamic in data set [6] is 31 µg/mL.

`CC(=O)Nc1nc2cnc(Nc3cc(NC(=O)c4cccc(CC(C)(C)C#N)c4)ccc3C)nc2s1`: the IC50 turned out to be 0.1 µM in data set [4], 0.15 µM in [2] and 0.3 µM in data set [5]. Further, the microsomal CLint at 1 µM in [1] was found to be 56 µL/min/mg.

Regarding `CN(c1ccc(F)c(NC(=O)c2cccc(OC(C)(C)C#N)c2Cl)c1)c1ccc2nc(NC(=O)C3CC3)sc2n1` [listing 1 of 2 here], the IC50 in [7] is 1 µM; in data set [8], 0.043 µM; in data set [9] it was 1.2 µM; in [10] it was > 10 µM; in data set [11] it was 0.13 µM; in data set [12], > 10 µM. The IC50 in data set [13] is 0.086 µM; in data set [14], > 10 µM; in [15], > 10 µM; on Angiopoietin-1 receptor, 0.84 µM; in data set [16] it was 0.023 µM; in data set [17] it was 0.091 µM. In addition, the IC50 on Aurora kinase B was 4 µM; in data set [18] it was > 10 µM; in data set [19] it was 3.7 µM; in [20] it was 0.43 µM; in data set [21], > 10 µM; in data set [22], > 10 µM. The IC50 is > 10 µM against Insulin receptor, 8.1 µM in [23] and > 10 µM in data set [24]. The microsomal CLint at 1 µM in data set [1] is 25 µL/min/mg; in data set [3] it was 32 µL/min/mg. Moreover, the solubility thermodynamic in [6] came to 18 µg/mL.

For orientation: clearance means the rate of elimination divided by the concentration. The AUC(0-t) is the area under the concentration-time curve up to a stated or last time point. A low value points to low exposure. For orientation: MRT means the average time that molecules of a dose stay in the body. What is called bioavailability is the share of a dose that reaches the circulation, judged against a reference dose that is usually intravenous. The Cmax is the highest concentration seen after dosing. With `CN(c1ccc(F)c(NC(=O)c2cccc(OC(C)(C)C#N)c2Cl)c1)c1ccc2nc(NC(=O)C3CC3)sc2n1.O.O=S(=O)(O)c1ccccc1`, the clearance in data set [25] was 29.2 mL/min/kg. The results for the AUC(0-t) at 24 h in data set [26] and in [28] were 5770 ng·h/mL and 600 ng·h/mL, respectively. Further, the T/C with HT-29 was -70%. Moreover, the Vd in data set [27] is 5.52 L/kg. Besides, the MRT stood at 3.13 h in data set [29] and 5.26 h in data set [30]. Also, the solubility thermodynamic in [6] came to 37 µg/mL. The molecule also displayed a bioavailability in data set [31] of 38.4%. In data set [32], this molecule displayed a Cmax of 660 ng/mL. Moreover, the Activity result with Rattus norvegicus [33] is reported as “Non-toxic”.

In the case of `CN(c1ccc(F)c(NC(=O)c2cccc(OC(C)(C)C#N)c2Cl)c1)c1ccc2nc(NC(=O)C3CC3)sc2n1` [listing 2 of 2 here], in the data set on Rattus norvegicus [34], the inhibition result was “Active”.

For the origin of these results see ChEMBL document CHEMBL2203033, “Design and synthesis of novel DFG-out RAF/vascular endothelial growth factor receptor 2 (VEGFR2) inhibitors: 3. Evaluation of 5-amino-linked thiazolo[5,4-d]pyrimidine and thiazolo[5,4-b]pyridine derivatives” (Bioorg Med Chem, 2012).
